Results taken from PMC3788796, “The Antimicrobial Domains of Wheat Puroindolines Are Cell-Penetrating Peptides with Possible Intracellular Mechanisms of Action” (PLoS ONE, 2013).
“And” between values parts separate entries of the source, which are not always exact repeats. Equal values may be shown once.

Experiments:
[1] = tested on: plasmid DNA (pBluescript SK+); experiment: Gel retardation assay for in vitro DNA binding; conditions: 100 ng plasmid DNA in 10 µL MilliQ water, 1 h room temperature, peptide 16–500 µg/mL, post-electrophoresis EtBr staining, triplicate assays
Experimental: This test assesses any peptide-DNA binding by noting the retardation of the rate of migration of DNA bands through agarose gels. A number of methods were tested. As per Hsu et al., DNA of a plasmid (200 ng) or a commercial molecular weight marker (50 ng) was mixed with a peptide (to final concentrations of 32, 64, 125 or 250 µg/mL) in 15 µL of 10 mM Tris-1 mM EDTA buffer (pH 8.0), incubated at room temperature for 2 min, then electrophoresed in 0.5% or 1.0% agarose gels containing 0.5 µg/mL ethidium bromide (EtBr). Following Park et al., 100 ng plasmid DNA was mixed with a peptide (to different concentrations) in 20 µL binding buffer (5% glycerol, 10 mM Tris-HCl (pH 8.0), 1 mM EDTA, 1 mM DTT, 20 mM KCl, 50 µg/mL BSA), held for 1 h at room temperature, then electrophoresed in EtBr-containing gels. Finally the protocols were modified to eliminate any interference of EtBr in the initial peptide-DNA binding. Plasmid DNA (100 ng) was mixed with a peptide (to final concentrations of 16, 32, 64, 125, 250 or 500 µg/mL) in 10 µL of MilliQ water, held at room temperature for 1 h and electrophoresed, followed by emersion of gels in EtBr solution (0.5 µg/mL) for 30 min before imaging.

S. cerevisiae cells = experiment: SEM of peptide-treated yeast cells; assay type: cell-based, Saccharomyces cerevisiae; conditions: sub-MIC: PuroA and Pina-M 64 µg/mL, Pina-W→F 125 µg/mL; 1 h 30°C
Experimental: S. cerevisiae cultures were grown overnight in 5.0 mL of PDB 30°C, to OD600 = 1.2–1.8 (∼5×10^7 cells/mL). 75 µL aliquots of the yeast cell suspension were incubated with 25 µL of PuroA, Pina-M, Pina-W→F or PuroB (at final concentrations of 0.5×, 1× or 2× of the respective MIC for S. cerevisiae; see results) for 1 h at 30°C. The cells were collected by centrifugation (1000×g, 5 min), the pellets washed three times in PBS (pH 7.4) and resuspended in 100 µL MilliQ (ultra-pure) water. A 25 µL aliquot of the cell suspension was spotted onto a glass slide, air-dried, then fixed and dehydrated as described previously. In brief, the air-dried slides were fixed in 2.5% glutaraldehyde (in PBS, pH 7.4) overnight in a humid chamber, then washed with PBS pH 7.4 for 10 min, and dehydrated in an ethanol gradient of 50%, 60%, 70%, 80%, 90% and 100%. The slides were freeze-dried overnight and then coated in a Dynavac CS300 coating unit with carbon and gold, with double sided conducting carbon tape attached to the slides for better conductivity. The samples were analysed using a ZEISS supra 10 VP field emission scanning electron microscope (Carl Zeiss Microscopy, NY, USA) at 3.0 kV.

[2] = Calcein dye leakage from bacteria-mimicking LUVs; assay type: biochemical; conditions: LUVs 10 µM phospholipid, 10 mM Tris, 100 mM NaCl pH 7.4, 5 min, fluorescence 496/515 nm, no-peptide control 28.5, average of duplicate experiments
Experimental: A calcein leakage assay as previously described was performed to determine the effects of PIN-based peptides on the permeability of synthetic large unilamellar vesicles (LUVs), designed to mimic bacterial and mammalian cell membranes. The phospholipids used were DOPC (1,2-dioleoyl-sn-glycero-3-phosphocholine), with zwitterionic head groups and DOPG (1,2-dioleoyl-sn-glycerol-3-[phosphor-rac-(1-glycerol)]), with negatively charged headgroups (Avanti® Polar lipids, Alabaster, USA). These were used to make DOPC:DOPG (1∶3) LUVs to mimic bacterial cell membranes, or DOPC only, to mimic mammalian cell membranes. Calcein-entrapped LUVs were prepared by the extrusion method using an Avanti mini extrusion apparatus (Avanti® Polar Lipids, Alabaster, USA). The DOPC:DOPG (a 1∶3 mixture) or DOPC were dissolved in chloroform (25 mg/mL) and aliquoted into glass test tubes to give a concentration of 2.6 mM when resuspended in 2 mL buffer. Chloroform was evaporated under a stream of N2 and the lipid films were dried overnight under vacuum. The films were then resuspended in 2.0 mL of 70 mM calcein buffer (in 10 mM Tris-HCl, pH 7.4) and incubated at room temperature for 30 minutes. To increase entrapment of the dye, five repeated freeze\thaw cycles were used by placing the vial in liquid N2 and then a warm water bath (37°C). The lipid mixture was then extruded through the mini-extruder 10 times through two stacked 0.1 µm pore-size filters. Free calcein was removed by centrifugation (10, 000×g, 10 min) three times and washing with 10 mM Tris, 100 mM NaCl buffer (pH 7.4). Standards of phosphorus (inorganic P; Pi) were prepared (0.05–1.5 mg/mL) using KH2PO4 and read at 820 nm and a linear standard curve was generated (Figure S1 in File S1). The phospholipid concentration of the vesicle preparations was determined by a total phosphorus assay. The assay reagent was prepared fresh by mixing 1 part of 1% ascorbic acid with 6 parts of 0.42% ammonium molybdate•4H2O in H2SO4 and stored on ice. 7 µL of it was added to 3 µL of vesicle suspensions and incubated for 20 min at 45°C. […] The standard curve of phosphorus standards (Figure S1 in File S1) was used to determine the Pi concentration in a LUV preparation, and this was converted to phospholipid concentration (Table S1 in File S1) to adjust the preparations to the required 10 µM phospholipid concentration prior to peptide treatment.
The calcein-filled LUVs were diluted with 10 mM Tris, 100 mM NaCl buffer (pH 7.4) to a final phospholipid concentration of 10 µM. The experiments were performed in a Varian Cary Eclipse fluorescence spectrophotometer with excitation and emission wavelengths of 496 nm and 515 nm, slit widths of […] and a PMT detector of 600 V. The peptides (PuroA, Pina-M, Pina-W→F and PuroB) were added to LUVs to a final peptide concentration of 8–125 µg/mL in 100 µL volumes and the fluorescence (F) monitored for 5 min at 60 s intervals. The total calcein fluorescence (FT) was determined by addition of 1.0% Triton X100. The dye leakage was calculated as % Leakage = ((F – F0)/(FT – F0)), F0 being fluorescence of each sample at T = 0.

Q: Which “Peptide concentration inducing gel retardation, Partial” value [1] does the source give for “FPVTFRFFKFFKG-NH2 [Pina-W→F, PuroA-based peptide with all Trps substituted with Phe residues]” here?
A: Its value is 32 ± 0 µg/mL.

Q: What about the “Peptide concentration inducing gel retardation, Full” value ([1]; complete inhibition of migration) of the same substance?
A: Its value is 64 µg/mL and 64 ± 0 µg/mL.

Q: What about the “surface morphology of yeast cells (SEM) at sub-MIC level” value (S. cerevisiae cells) of the same substance?
A: The value was “shallow pits or pores on the surface”.

Q: What about the “% Calcein leakage from DOPC:DOPG LUVs” value ([2]; peptide 8 µg/mL) of the same substance?
A: Its value is 29.2%.

Q: And the “% Calcein leakage from DOPC:DOPG LUVs” value ([2]; peptide 16 µg/mL)?
A: The value was 32.0%.

Q: And the “% Calcein leakage from DOPC:DOPG LUVs” value ([2]; peptide 32 µg/mL)?
A: The value was 64%.

Q: What about the “% Calcein leakage from DOPC:DOPG LUVs” value ([2]; peptide 64 µg/mL) of the same substance?
A: The value was 78.0%.

Q: And the “% Calcein leakage from DOPC:DOPG LUVs” value ([2]; peptide 125 µg/mL)?
A: The value was 81.0%.
